Values of other authors, collected in patent US20050196503A1, “High-intensity sweetener-polyol compositions” (priority 2004, published 2005).
Residues, ends and D or L forms follow the SMILES beside them.

Conditions: for sweetness strength or sweetening potency, times that of sucrose: in terms of weight ratio; for Approximate sweetness (sucrose = 1): relative to sucrose, weight basis; for sweetness relative to sucrose: percent of the sweetness of sucrose

Compound: CC1=CC(=O)[N-]S(=O)(=O)O1.[K+] [Acesulfame-K]
- sweetness strength or sweetening potency, times that of sucrose: about 200 times
- Approximate sweetness (sucrose = 1): 200

Compound: Isomalt [Isomalt (platinit)]
- Approximate sweetness (sucrose = 1): 0.45-0.65

Compound: OC[C@@H](O)[C@@H](O[C@H]1O[C@H](CO)[C@@H](O)[C@H](O)[C@H]1O)[C@H](O)[C@@H](O)CO [Malitol, maltitol]
- sweetness relative to sucrose: 90%
- Approximate sweetness (sucrose = 1): 0.9

Compound: OC[C@@H](O)[C@@H](O[C@@H]1O[C@H](CO)[C@H](O)[C@H](O)[C@H]1O)[C@H](O)[C@@H](O)CO [Lactitol]
- Approximate sweetness (sucrose = 1): 0.4

Compound: COC(=O)[C@H](Cc1ccccc1)NC(=O)[C@@H](N)CC(=O)O [Aspartame] (H-Asp-Phe-OMe)
- sweetness strength or sweetening potency, times that of sucrose: about 180 times
- Approximate sweetness (sucrose = 1): 180

Compound: OC[C@@H](O)[C@H](O)[C@@H](O)CO [Xylitol]
- sweetness relative to sucrose: 100%
- Approximate sweetness (sucrose = 1): 1.0

Compound: OC[C@@H](O)[C@@H](O)CO [Erythritol]
- Approximate sweetness (sucrose = 1): 0.7

Compound: OC[C@@H](O)[C@@H](O)[C@H](O)[C@@H](O)CO [Sorbitol]
- Approximate sweetness (sucrose = 1): 0.6

Compound: COC(=O)[C@H](Cc1ccccc1)NC(=O)[C@H](CC(=O)O)NCCC(C)(C)C [Neotame]
- sweetness strength or sweetening potency, times that of sucrose: ~10,000 times
- Approximate sweetness (sucrose = 1): 8,000

Compound: OC[C@@H](O)[C@@H](O)[C@H](O)[C@H](O)CO [Mannitol]
- Approximate sweetness (sucrose = 1): 0.7

Compound: O=C1NS(=O)(=O)c2ccccc21 [Saccharin]
- Approximate sweetness (sucrose = 1): 300

Compound: OC[C@H]1O[C@H](O[C@]2(CCl)O[C@H](CCl)[C@@H](O)[C@@H]2O)[C@H](O)[C@@H](O)[C@H]1Cl [Sucralose]
- Approximate sweetness (sucrose = 1): 600
